From patent publication US8912222B2, “Method to control insects resistant to common insecticides” (priority 2006, dated 2014)
Marks after values point to notes of the source that are not given here.

Tests used:
[1] = system: insecticide-resistant Q-biotype Bemisia tabaci strain CHLORAKA; test: Leaf-disc dip bioassay on adult whiteflies, neonicotinoid-resistant Q-biotype strain (Example VII); format: in vivo
Description: (§1) The activity of commercial, neonicotinoid insecticides was also assessed and served as the basis for comparisons of relative efficacy on this insecticide-resistant whitefly strain.
(§2) The common name associated with the Q-biotype of B. tabaci is the sweetpotato whitefly. […] The SUD-S strain of B. tabaci was the reference strain used in these tests and is a laboratory strain that is fully susceptible to all insecticide groups.
(§3) Technical samples of Compounds 6 and 7 were initially dissolved in 90% acetone in distilled water (containing 0.01% Agral) to obtain 5000 ppm stock solutions. […] Commercial formulations of imidacloprid (Confidor, 200SL), thiamethoxam (Actara, 25WG) and acetamiprid (Mospilan, 20SP) were diluted using distilled water containing 0.01% Agral.
(§4) Adult B. tabaci were removed from rearing cages using a motorized aspirator and, after brief narcosis, 20-30 healthy female whiteflies were placed onto each treated leaf disc. Each unit was sealed with a close-fitting, ventilated lid. Once adults had recovered from narcosis, dishes were inverted so that the leaf disc was facing abaxial side down allowing the adult whiteflies to orient normally. All bioassays consisted of three replicates per concentration (including controls). Mortality was assessed at 48 hours after initiation of the test for the commercial standards and at 72 hours for Compounds 6 and 7.
(§5) Compounds 6, 7 and the commercial neonicotinoid insecticides imidacloprid, thiamethoxam and acetamiprid were tested in discriminating concentration bioassays against both whitefly strains. More extensive concentration-response bioassays against both whitefly strains were conducted for Compounds 6, 7 and imidacloprid. […] Resistance ratios were calculated using the following equation: […]

[2] = system: Bemisia tabaci SUD-S strain (susceptible laboratory strain); test: Leaf-disc dip bioassay on adult whiteflies, susceptible reference strain (Example VIII); format: in vivo
Description: (§6) The insecticidal activity of Compound 7 on adults from an insecticide-resistant, B-biotype Bemisia tabaci strain was assessed. The activity of commercial, neonicotinoid insecticides was also assessed and served as the basis for comparisons of relative efficacy on this insecticide-resistant whitefly strain.
(§7) The common name associated with the B-biotype of B. tabaci is the silverleaf whitefly. The strain used in these tests, “GUA-MIX”, was collected from a variety of crops situated in the Zacapa Valley of Guatemala in January of 2004. […] The SUD-S strain of B. tabaci was the reference strain used in these tests and is a laboratory strain that is fully susceptible to all insecticide groups.
(§8) A technical sample of Compound 7 was initially dissolved in 90% acetone in distilled water (containing 0.01% Agral) to obtain a 5000 ppm stock solution. […] Commercial formulations of imidacloprid (Confidor, 200SL), thiamethoxam (Actara, 25WG) and acetamiprid (Mospilan, 20SP) were diluted using distilled water containing 0.01% Agral.
as §4, with “Compound” for “Compounds 6 and”
(§9) Compound 7 and the commercial neonicotinoid insecticides imidacloprid, thiamethoxam and acetamiprid were tested in discriminating concentration bioassays against both whitefly strains. More extensive concentration-response bioassays against both whitefly strains were conducted for Compound 7 and imidacloprid. […] Resistance ratios were calculated using the following equation: […]

[3] = system: Bemisia tabaci SUD-S strain (susceptible laboratory strain); test: Leaf-disc dip bioassay on adult whiteflies, susceptible reference strain (Example VII); format: in vivo
Description: as §1, §2, §3, §4, §5

[4] = system: Myzus persicae US1L strain (susceptible); conditions: probit analysis; 72 h mortality data
Source text: (§10) Activity was compared to that of commercial insecticides representing major insecticide classes.
(§11) The common name associated with Myzus persicae is the green peach aphid. […] The “US1L” strain of M. persicae was the reference strain used in these tests.
(§12) Subsequent dilutions used a 10% solution of acetone in distilled water (containing 0.01% Agral®) as the diluent.
(§13) For M. persicae bioassays, discs cut from fully expanded leaves of Chinese cabbage (Brassica rapa ssp. Pekinensis cv. Won Bok) plants were dipped into serial dilutions of insecticide, allowed to air-dry, and placed onto agar-water (1%) beds in plastic Petri-dishes. Leaf discs immersed in the diluent only were used for controls. Adults were removed from rearing boxes and, using a fine camel-hair paint brush, 10 healthy, apterous females were placed onto each treated leaf disc and each unit sealed with a close-fitting, ventilated lid. All bioassays consisted of three replicates per dose (including controls). Mortality was scored at 24, 48 and 72 h following initial exposure for all compounds and the 72 h data were used for all analyses.
(§14) Mortality data were subjected to probit analysis to derive LC50 and LC90 estimates. Resistance ratios were calculated using the following equation: […]

[5] = system: insecticide-resistant B-biotype Bemisia tabaci strain GUA-MIX; test: Leaf-disc dip bioassay on adult whiteflies, neonicotinoid-resistant B-biotype strain (Example VIII); format: in vivo
Description: as §6, §7, §8
as §4, with “Compound” for “Compounds 6 and”
as §9

[6] = system: Bemisia tabaci SUD-S strain (susceptible laboratory strain); test: Leaf-disc dip bioassay on adult whiteflies, susceptible reference strain (Example IX); format: in vivo; conditions: probit analysis; mortality at 72 hours for Compounds 2, 4, 5, 48 hours for commercial standards
Source text: as §2
as §4, with “2, 4,” for “6”, “5.” for “7.”
(§15) Resistance ratios were calculated using the following equation: […]

[7] = system: field-collected populations of the whitefly, Bemisia tabaci; conditions: field-collected B. tabaci strains, late 1990s onward; literature; cited from earlier work
[8] = system: insecticide-resistant Q-biotype Bemisia tabaci strain CHLORAKA; test: Leaf-disc dip bioassay on adult whiteflies, insecticide-resistant Q-biotype strain (Example IX); format: in vivo
Source text: as §2
as §4, with “2, 4,” for “6”, “5.” for “7.”
as §15

[9] = system: insecticide-resistant Myzus persicae strain 4013A; test: Leaf-disc dip bioassay on adult aphids, insecticide-resistant strain (Example IX)
Source text: as §10, §11, §12, §13, §14

[10] = Bemisia tabaci, 48 h, read-out: Mortality, R Strain (CHLORAKA)
[11] = probit analysis, mortality at 72 hours for Compounds 6 and 7, 48 hours for commercial standard
[12] = Bemisia tabaci, 48 h, read-out: Mortality, S Strain (SUD-S)
[13] = probit analysis, mortality at 72 hours for Compound 7, 48 hours for commercial standard
[14] = Bemisia tabaci, 48 h, read-out: Mortality, R Strain (GUA-MIX)

O=[N+]([O-])NC1=NCCN1Cc1ccc(Cl)nc1 [Imidacloprid, imidacloprid]
mortality at 32 ppm [1, 10]: 2% | mortality at 128 ppm [1, 10]: 2% | mortality at 4096 ppm [1, 10]: 25% | Resistance Ratio ([1]; CHLORAKA (R) vs SUD-S (S) LC50): >930** | effect of exposure on adults of the CHLORAKA strain ([1]; imidacloprid at 1000 ppm): largely unaffected | LC50, R strain (CHLORAKA) [1, 11]: >4000 ppm | mortality at 32 ppm [2, 12]: 74% | mortality at 128 ppm [2, 12]: 87% | LC50, S strain (SUD-S) [2, 13]: 11.2 ppm | mortality at 32 ppm [3, 12]: 83% | mortality at 128 ppm [3, 12]: 95% | LC50, S strain (SUD-S) [3, 11]: 4.3 ppm | LC50, S strain (US1L) [4]: 0.9 ppm | mortality at 32 ppm [5, 14]: 8% | mortality at 128 ppm [5, 14]: 39% | mortality at 2048 ppm [5, 14]: 49% | Resistance Ratio ([5]; GUA-MIX (R) vs SUD-S (S) LC50): >45.5** | effect on the majority of adults of the GUA-MIX strain ([5]; imidacloprid concentrations of 1000 ppm): largely unaffected | LC50, R strain (GUA-MIX) [5, 13]: >500.0 ppm | LC50, S strain (SUD-S) [6]: 1.2 ppm | resistance of more recently-collected whitefly strains [7]: more than 100 fold | Resistance Ratio ([8]; CHLORAKA (R) vs SUD-S (S) LC50): >800** | effect of exposure on adults of the CHLORAKA strain ([8]; imidacloprid at 1000 ppm): largely unaffected | LC50, R strain (CHLORAKA) ([8]; probit analysis, mortality at 72 hours for Compounds 2, 4, 5, 48 hours for commercial standards): >1000 ppm | Resistance Ratio ([9]; 4013A (R) vs US1L (S) LC50): 17 | LC50, R strain (4013A) ([9]; probit analysis, 72 h mortality data): 15.3 ppm
